Data reported in article PMC11898290, “TFEB promotes Ginkgetin-induced ferroptosis via TRIM25 mediated GPX4 lysosomal degradation in EGFR wide-type lung adenocarcinoma” (Theranostics, 2025).
pKd: −log10 of the molar value.

What was measured:
[1] = molecular target: T1, TFEB-GFP (pcDNA3.1-TFEB-GFP) (Homo sapiens, UniProt P19484); assay: microscale thermophoresis, GFP-fusion in cell lysate; assay type: binding
T1 sequence (P19484 1-476): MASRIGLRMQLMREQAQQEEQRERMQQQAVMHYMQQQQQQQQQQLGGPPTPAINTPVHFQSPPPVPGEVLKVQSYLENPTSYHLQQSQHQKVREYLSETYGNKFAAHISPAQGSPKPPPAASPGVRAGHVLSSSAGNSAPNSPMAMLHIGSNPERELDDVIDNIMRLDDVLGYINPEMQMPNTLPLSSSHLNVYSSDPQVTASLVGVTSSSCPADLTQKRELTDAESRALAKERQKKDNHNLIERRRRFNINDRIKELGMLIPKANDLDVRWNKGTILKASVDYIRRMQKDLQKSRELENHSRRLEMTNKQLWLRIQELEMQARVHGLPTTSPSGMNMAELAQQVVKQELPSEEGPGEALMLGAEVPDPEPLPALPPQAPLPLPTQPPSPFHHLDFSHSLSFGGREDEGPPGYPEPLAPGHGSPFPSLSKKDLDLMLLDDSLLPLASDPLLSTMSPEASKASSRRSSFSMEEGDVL

TFEB = molecular target: T2, TFEB (Homo sapiens, UniProt P19484); assay: SPR, Biacore S200, CM5 chip, steady-state fit; assay type: binding; conditions: 10 mM HEPES pH 7.4, 150 mM NaCl, 0.05% P20, 2% DMSO, 25 °C; GK 0.137-100 µM
T2 construct: TFEB protein amine-coupled on CM5 chip (about 6500 RU)
T2 sequence (P19484 1-476): T1 sequence (P19484 1-476)

COc1cc(O)c2c(=O)cc(-c3ccc(OC)c(-c4c(O)cc(O)c5c(=O)cc(-c6ccc(O)cc6)oc45)c3)oc2c1 [ginkgetin]
pKd [1]: 4.55
Kd (TFEB): The binding affinity of GK to TFEB was determined by the SPR assay.
